Experiments:
[1] = test system: fecal microbiota from patients with clinically documented Auto-brewery Syndrome; test: Bioreactor cultures of fecal microbiota, ethanol production (ABS patients); format: cell-based, human; conditions: 24 hours
Protocol: (§1) 100 mg of stool collected from patients during flare and remission and from their household partners was cultured in bioreactor cultures which consisted of 10 mL of Luria Broth (LB) media supplemented with 2 mM glucose and 2 mM cysteine in anaerobic conditions using hungate tubes. This concentration of glucose was chosen to emulate physiologic glucose concentrations in the intestine. Bioreactor cultures were untreated or treated with 0.05% dimethyl sulfoxide (DMSO, vehicle), 10 μg/mL amphotericin B, or 100 μg/mL chloramphenicol. To emulate supraphysiologic concentrations of glucose in the GI tract, patient microbiota was also cultured in LB media supplemented with 100 mM and 200 mM of glucose anaerobically using hungate tubes. Samples were collected at 0, 6, and 24 hours of culturing and ethanol concentration was assessed by high-performance liquid chromatography (HPLC) using a 1260 Infinity IILC system (Agilent, Santa Clara, CA, USA) equipped with an HPX-87H (Biorad, Hercules, CA, USA) or by using an enzyme-based kit (Abcam, in less than 20% of samples, low limit of detection 50 ng/dL).

[2] = test system: fecal microbiota from household partners; test: Bioreactor cultures of fecal microbiota, ethanol production (household partners); format: cell-based, human; conditions: household partner samples, 24 hours; 10 μg/mL amphotericin B or 100 μg/mL chloramphenicol
Protocol: as §1

[3] = samples from ABS patients, compared with DMSO vehicle control, 100 μg/mL chloramphenicol or 10 μg/mL amphotericin B

Compound | ethanol production in bioreactor cultures [1, 3] | ethanol production in bioreactor cultures [2] | ethanol production in bioreactor cultures ([1]; three ABS patient samples during a flare, 10 μg/mL amphotericin B)
O=C(N[C@H](CO)[C@H](O)c1ccc([N+](=O)[O-])cc1)C(Cl)Cl [chloramphenicol] | significantly decreased | No significant difference | –
C[C@@H]1[C@H](O)[C@@H](C)/C=C/C=C/C=C/C=C/C=C/C=C/C=C/[C@H](O[C@@H]2O[C@H](C)[C@@H](O)[C@H](N)[C@@H]2O)C[C@@H]2O[C@](O)(C[C@@H](O)C[C@@H](O)[C@H](O)CC[C@@H](O)C[C@@H](O)CC(=O)O[C@H]1C)C[C@H](O)[C@H]2C(=O)O [amphotericin B] | did not have a significant effect | No significant difference | partially reduced

From patent US20250333775A1, “DIAGNOSTIC TEST AND THERAPY FOR PATIENTS WITH AUTO-BREWERY SYNDROME” (The Regents of the University of California, priority 2024, published 2025)
